Laboratory results published in PMC6274259, “New 3-Cyano-2-Substituted Pyridines Induce Apoptosis in MCF 7 Breast Cancer Cells” (Molecules, 2016).

Legend:
[1] = tested on: MCF-7 human breast adenocarcinoma cell line; assay: WST-1 cell viability assay, MCF-7; assay type: cell-based; settings: for IC50: WST-1, 24 h treatment, mean ± S.D of three independent experiments
Description: (§1) The synthesized compounds were screened for their cytotoxicity on five cancer cell lines, namely SK-OV-3, MCF-7, MDA-MB-231, HCT-116 and RKO, using a WST colorimetric assay. The assay principle is based upon the reduction of the tetrazolium salt WST-1 to formazan by cellular mitochondrial dehydrogenases present in viable cells. […] Among the latter compounds the benzohydrazide derivative 9a emerged with the lowest IC50 in this study against MCF-7 cells compared to 5-FU. […] Based on the fact that 9a had less cytotoxic effects on normal breast epithelial cells it was subjected to further studies.
(§2) The following cell lines were used for the screening stage, obtained from the American Type Culture Collection (ATCC, Manassas, VA, USA); SK-OV-3 (HTB-77), MCF-12A (ATCC CRL-10782), MDA-MB-231 (ATCC HTB-26), HCT-116 (CCL-247), RKO (CRL-2577) and sub-culturing of the above cell lines was conducted in 75 cm^2 flasks. The old culture media was removed and discarded after assessing the confluency of the cells and the cells were rinsed with 2–3 mL diluted trypsin (1×) (trypsin/EDTA solution consists of 0.025% trypsin and 0.01% EDTA in PBS), for about 5 minutes for complete detachment. The cells were observed under the inverted microscope until the cell layer is completely dispersed. 75 cm^2 flasks were prepared and 16 mL of DMEM media for SK-OV-3, MCF-7, MDA-MB-231, (DMEM 4500 mg glucose) and RPMI media for HCT-116 were added to each flask. The cells were aspirated gently and added to the flasks. DMEM 4500 mg/L high glucose with 10% FBS, 5% streptomycin and penicillin, RPMI 1640 (prepared by adding 5% heat-inactivated FCS and 2 mm glutamine) were used. DMEM was also used for MCF-12A cells with the addition of human epidermal growth factor 20 ng/mL, insulin 0.01 mg/mL and hydrocortisone 500 ng/mL.
(§3) The synthesized compounds were screened for their anti-proliferative activity using 5-FU (F6627-1G, Sigma-Aldrich, St. Louis, MO, USA) as reference compound. A concentration of 0.4% DMSO was used in all experiment after ensuring 100% viability of the cell lines with this concentration. A 25 mM stock concentration of all compounds was prepared for further studies and analysis.
(§4) Cells were trypsinized and placed in a 15 mL Falcon tube, the cells were centrifuged for 3 min at 1000 rpm. Trypsin is decanted using a sterile pipette and then the pellet is loosened by flicking the tube few times then 5–10 mL warm DMEM or RPMI were added to the Falcon tube and the pellet is resuspended. Cell count was done next by taking 10 μL of the suspension into the cell counting slide and read under 10× cells/mL. A cell stock of 50,000 cells/mL was prepared for the 96 wells. Cells (100 μL) were added to each well using a sterile pipette each time to ensure consistency. The experiment was planned ahead of time using excel sheet, 3–6 wells were reserved as blank media while 3–6 wells for vehicle (DMSO). The plate was incubated for 24 h for compound treatment step. DMEM media was used to prepare different dilutions of the compounds. The old DMEM media was removed from the wells using sterile pipette in the hood and the media was replaced with 100 μL media with each compound. The plate was incubated for 24 h. After 24 h incubation, WST-1 reagent (Sigma) was added to each well and then the plate was incubated for 1 h before measuring the absorbance using VICTOR™ Multilabel Plate Reader (Perkin Elmer, Beaconsfield, UK). The absorbance of the colored solution can be quantified by measuring at a certain wavelength (usually between 500–600 nm), in this experiment the first reading was conducted at 540 nm and the second reading at 690 nm for the reference wavelength. The percentage of cell viability was determined as the ratio of the absorbance of the sample vs the control. Three independent experiments were performed. […] 5-Florouracil (Sigma-Aldrich, F6627-1G) was used as reference standard.

MCF-7 cells = assay: Morphological examination of MCF-7 cells; assay type: cell-based, human; settings: 24 h
Description: The morphological changes in MCF-7 cells were followed up after treatment with different concentrations of compound 9a (0.05, 0.1, 0.5, 2, 5 and 10 μM) for 24 h. […] Untreated cells were used as a negative control.
Morphological examination was performed as described previously; MCF-7 cells were plated on 96 well plates using 5 × 10^4 cells/well and allowed to reach 75%–85% confluence. The compounds were added to the medium, untreated cells were used as negative control, in addition to blank cells (medium) and vehicle which consist of (DMSO 0.4% + cells). After treatment, all the cells were incubated for 24 h in an atmosphere containing 5% CO2. After […] of treatment, the morphological changes of the cells were examined and photographs were taken using an inverted microscope at 400× magnification.

[2] = WST-1 cell viability assay, MCF-12a normal cells; assay type: cell-based, human; settings: human, MCF-12a normal breast epithelial cells, 2 μM, 24 h
Description: as §1, with “studies. […]” for “studies.”
(§5) Cells were trypsinized and placed in a 15 mL Falcon tube, the cells were centrifuged for 3 min at 1000 rpm. […] Cell count was done next by taking 10 μL of the suspension into the cell counting slide and read under 10× cells/mL. […] After 24 h incubation, WST-1 reagent (Sigma) was added to each well and then the plate was incubated for 1 h before measuring the absorbance using VICTOR™ Multilabel Plate Reader (Perkin Elmer, Beaconsfield, UK). The absorbance of the colored solution can be quantified by measuring at a certain wavelength (usually between 500–600 nm), in this experiment the first reading was conducted at 540 nm and the second reading at 690 nm for the reference wavelength. The percentage of cell viability was determined as the ratio of the absorbance of the sample vs the control. […]

[3] = tested on: MCF-12a normal breast epithelial cells; assay: WST-1 cell viability assay, MCF-12a normal cells; assay type: cell-based, human; settings: Homo sapiens, MCF-12A
Description: as §1, with “studies. […]” for “studies.”
as §5

[4] = tested on: HCT-116 human colon carcinoma cell line; assay: WST-1 cell viability assay, HCT-116; assay type: cell-based; settings: Homo sapiens, HCT-116; WST-1, 24 h treatment, mean ± S.D of three independent experiments
Description: as §1, §2, §3, §4

Question: What does the source list for `COc1ccc(-c2cc(-c3ccc(OC)c(OC)c3)c(C#N)c(OCC(=O)NNC(=O)c3ccccc3)n2)cc1OC` [Compound 9a, N'-[2-(3-cyano-4,6-bis(3,4-dimethoxyphenyl)pyridin-2-yloxy)acetyl]benzohydrazide]?
Answer: IC50 ([1]; Homo sapiens, MCF7, 24 h): 2 µM; viability at 2 µM ([1]; Homo sapiens, MCF7, 2 μM, 24 h, WST-1, read-out: cell viability in MCF-7 cells): ~50%; IC50 [1]: 2.04 ± 0.13 µM; morphological changes (MCF-7 cells; 0.05, 0.1 and 0.5 μM): no morphological changes were observed; morphological changes (MCF-7 cells; 2, 5 and 10 μM): apoptotic features were observed; viability at 24 h, 2 µM [2]: ~74%; IC50 [3]: 7.5 ± 0.25 µM; IC50 [4]: 7.12 ± 0.37 µM
